In patent US6716857B2, “Tetrahydropyridine derivatives acting on muscarinic acetylcholine receptors” (Korea Institute of Science and Technology, priority 2001, dated 2004):

Legend:
[1] = test system: T1, Oxo-M binding receptor of muscarinic receptors (rat forebrain synapse membranes); assay: [3H]-oxotremorine-M ([3H]-Oxo-M) affinity screening test; conditions: inhibition of specific [3H]-Oxo-M binding, under head M1; for M1 Oxo-M (1 μM) inhibition: compound at 1 μM
T1 construct: under head M1
Text: (§1) [^3H]-oxotremorine-M ([^3H]-Oxo-M) Affinity Screening Test
(§2) The experimental principle was the same as [^3H]-NMS affinity screening test. […] The functions of the compounds may be determined by carrying out both of [^3H]-NMS and [^3H]-Oxo-M (oxotremorine) affinity screening tests to measure their respective IC50 values and calculating ratios (NMS/Oxo-M) of the measured IC50 values.
(§3) Synapse membranes for binding assay of Oxo-M binding receptor of muscarinic receptors were directly prepared and used in the laboratory as follows: male Sparague-Dawley rats (supplied from Laboratory Animal Center of Korea Research Institute of Chemical Technology, 250 to 300 g) were sacrificed by decapitation. The brain tissues were immediately removed from and the forebrain was obtained, which was sectioned into small pieces. After adding 10-fold amount of ice-cooled solution of sucrose (0.32M), the sectioned forebrain was homogenized using Teflon-glass homogenizer (Contorque, Eberbach) at 10 strokes and 500 rpm, centrifuged at 1000 g for 15 minutes, and then the supernatant was again centrifuged at 17000 g for 20 minutes. The pellet was stored at −20° C. and then used.
(§4) Before the pellet was used at this assay, it was suspended in 10 mL of 20 mM HEPES buffer (pH 7.4), again centrifuged at 17000 g for 15 minutes and then washed. Finally, the washed membrane was diluted in ice-cooled 20 mM HEPES buffer (pH 7.4) to the final concentration of 1:100 (wet wt/v) and used at this assay. All test samples were tested four times, and 20 mM HEPES buffer (pH 7.4) was used as a buffer for screening test. The final volume of reaction was 1 mL, and 24-well plate (costar 24-well) was used. 50 μL of hot-ligand (Oxo-M 5 nM) and 10 μL of test drugs were included therein, and the reaction was initiated by adding 750 μL of synapse membrane and continued at 30° C. for 40 minutes on the shaking incubator. 2 μM atropine was used for non-specific binding in all tests. After completion of the reaction, the receptor binding ligands and non-binding ligands were separated by using Inotech cell harvester (24-channels, Inotech, Switzerland) and filtering under reduced pressure (10×ice-cooled saline) with Wallac GF/C filter (pre-immersed in 0.05% polyethylene imine). The radioactivity of the receptor binding ligands was detected by Liquid Scintillation Counter (MicroBeta Plus, Wallac, Finland).
(§5) The test drugs were diluted sequentially for the required concentrations by dissolving them in dimethylsulfoxide (DMSO) and used in the test. […] From the saturated affinity screening test, Kd and Bmax values, and IC50 or Ki values of respective test drugs were calculated by observing the non-linear regression using prism (Graphpad software Inc., USA). The saturated affinity screening test was carried out in the range of 0.1 to 10 nM of [^3H]-Oxo-M ligand as described above.

[2] = test system: Oxo-M binding receptor of muscarinic receptors (rat forebrain synapse membranes); assay: as above; conditions: ratio IC50 NMS / IC50 Oxo-M; >180 full agonist, 14 to 130 partial agonist, 0.2 to 1.9 antagonist
Text: as §1, §2, §3, §4, §5

[3] = biological target: T2, human recombinant muscarinic receptor subtype 2 (M2) expressed in CHO cells (Homo sapiens, UniProt P08172); assay: [3H]-N-methyl-scopolamine ([3H]-NMS) affinity screening test, M2; conditions: inhibition of specific [3H]-NMS binding, compound at 1 μM
T2 construct: purchased Biosignal, Canada; host or cells: CHO cells
T2 sequence (P08172 1-466): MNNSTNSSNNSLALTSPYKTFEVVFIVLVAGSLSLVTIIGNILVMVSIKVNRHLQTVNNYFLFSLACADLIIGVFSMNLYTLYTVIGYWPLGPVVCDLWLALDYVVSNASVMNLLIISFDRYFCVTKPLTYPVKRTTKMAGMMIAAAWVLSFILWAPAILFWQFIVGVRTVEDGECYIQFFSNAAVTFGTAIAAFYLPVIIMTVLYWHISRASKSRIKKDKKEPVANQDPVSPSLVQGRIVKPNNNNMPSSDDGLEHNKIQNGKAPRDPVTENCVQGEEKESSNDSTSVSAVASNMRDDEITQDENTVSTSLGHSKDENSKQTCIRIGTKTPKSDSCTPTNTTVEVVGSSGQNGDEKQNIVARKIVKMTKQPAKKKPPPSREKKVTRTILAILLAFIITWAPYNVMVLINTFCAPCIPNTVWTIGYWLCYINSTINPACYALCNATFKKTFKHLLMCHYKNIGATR
Text: (§6) [^3H]-N-methyl-scopolamine ([^3H]-NMS) Affinity Screening Test
(§7) In order to exclude the interaction between subtypes, human recombinant muscarinic receptor subtypes 1, 2 and 3 expressed in CHO cells (M1, M2 and M3, Biosignal, Canada) were purchased and used as receptor sources. [^3H]-N-methyl-scopolamine (NEN, NET-636) was used as radioisotope labeled ligands, and atropine was used for the measurement of the non-specific binding ability. About 10 kinds of experimental apparatuses including Liquid Scintillation Counter (MicroBeta 1450 plus), Inotech cell harvester (96-well) were used.
In order to determine the effect of each compound on M1 and M2 receptors, the compounds were reacted with the receptors using radioisotope labeled ligands. After the reaction, the excess unbound ligands were removed by filtering with a glass fiber filter. The amount of radioisotopes remaining on the washed filter plate was then measured to quantify the binding reaction between the receptors and the ligands and, from the result, the affinity of the drugs for the receptors was determined.
(§8) The freeze-stored receptors at −70° C. were suspended in test buffer solutions and then the screening test (BioRad protein) was carried out to determine the optimum concentration of the proteins. Thereafter, 50 μL of hot-ligands and 10 μL of test drugs were added to 96-well plate and 100 μL of 50 mM TRIS buffer (pH 7.2) containing 10 mM MgCl2 and 1 mM EDTA was added as a test buffer. The final volume of the reaction was 0.25 mL. The reaction was initiated by adding 100 μL of the diluted receptor suspension, and continued for 60 minutes on a shaking incubator at 27° C. This test was repeated four times. After 60 minutes, the reaction was terminated by adding cold TRIS buffer (0.5 mL, pH 7.4). The excess unbound radioisotopes were removed from the reaction mixture using Inotech cell harvester system. After washing the mixture, the radioactivity detected by the filter mat was measured using Liquid Scintillation Counter. As primary stage of the efficacy screening, the drugs at two concentrations (1 μM, 10 μM) were screened for their affinity for the receptors. As secondary stage, drugs showing remarkable efficacies were determined at the lower concentrations. Finally, IC50 values were calculated at the gradient of 10 concentrations. The test drugs were diluted sequentially for the required concentrations by dissolving them in dimethylsulfoxide (DMSO). […] From the saturation affinity screening test, Kd and Bmax values, and IC50 or Ki values of each test drugs were calculated by observing the non-linear regression using prism (Graphpad software Inc.,USA).
(§9) In the equilibrium affinity screening test, [^3H]-N-methyl-scopolamines at the gradient of 12 concentrations were used for the measurement of the binding ability (IC50). In the competition screening test, 1 nM of [^3H]-N-methyl-scopolamines, and the reference drugs at the gradient of 10 concentrations were used for the measurement. 4-DAMP-methyliodide, Pirenzepine, p-F-hexahydro-sila-defenidol, Methoctramine, and the like were used as reference drugs.

[4] = biological target: T3, human recombinant muscarinic receptor subtype 1 (M1) expressed in CHO cells (Homo sapiens, UniProt P11229); assay: [3H]-N-methyl-scopolamine ([3H]-NMS) affinity screening test, M1; conditions: inhibition of specific [3H]-NMS binding
T3 construct: purchased Biosignal, Canada; host or cells: CHO cells
T3 sequence (P11229 1-460): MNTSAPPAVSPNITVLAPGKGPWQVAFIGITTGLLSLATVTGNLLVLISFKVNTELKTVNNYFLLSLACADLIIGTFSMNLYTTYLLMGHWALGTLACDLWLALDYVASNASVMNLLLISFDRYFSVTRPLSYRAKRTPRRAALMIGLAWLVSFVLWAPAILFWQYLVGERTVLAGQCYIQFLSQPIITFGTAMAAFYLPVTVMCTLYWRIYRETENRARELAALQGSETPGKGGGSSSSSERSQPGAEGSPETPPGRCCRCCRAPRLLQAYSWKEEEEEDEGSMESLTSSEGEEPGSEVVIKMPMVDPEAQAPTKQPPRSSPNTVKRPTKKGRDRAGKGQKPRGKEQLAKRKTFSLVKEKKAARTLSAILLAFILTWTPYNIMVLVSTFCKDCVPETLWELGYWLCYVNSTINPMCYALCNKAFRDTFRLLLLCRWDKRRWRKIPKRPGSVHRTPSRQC
Text: as §6, §7
In order to determine the effect of each compound on M1 and M2 receptors, the compounds were reacted with the receptors using radioisotope labeled ligands. After the reaction, the excess unbound ligands were removed by filtering with a glass fiber filter.
as §8, with “As secondary stage, drugs showing remarkable efficacies were determined at the lower concentrations.” left out
as §9

SMILES	M1 Oxo-M (1 μM) inhibition [1] [%]	IC50 [1] [nM]	NMS/Oxo-M (ratio of IC50 values) [2]	inhibition at 1 µM [3] [%]	IC50 [4] [µM]	inhibition at 10 µM ([4]; compound at 10 μM) [%]	M2 NMS (1 μM) inhibition [3] [%]	M1 NMS (10 μM) inhibition ([4]; compound at 10 μM) [%]
CN1CCC=C(C(CN2CCCC2=O)=NOCc2ccccc2)C1 (mixture of isomers) [Example 29, 1-[2-benzyloxyimino-2-(1-methyl-1,2,5,6-tetrahydro-pyridin-3-yl)-ethyl]-pyrrolidin-2-one]	78.4	163	486	0	79.2	0	–	–
COC(=O)C1=CCCN(C)C1 [Arecoline, reference compound]	85.5	140	–	–	–	–	–	–
CN1CCC=C(C(CCN2CCCC2=O)=NO)C1 [Example 16, 1-[3-hydroxyimino-3-(1-methyl-1,2,5,6-tetrahydro-pyridin-3-yl)-propyl]-pyrrolidin-2-one]	92.4	74	236	22.6	17.4	39.5	–	–
C#CCON=C(CCN1CCCC1=O)C1=CCCN(C)C1 [Example 18, 1-[3-(1-methyl-1,2,5,6-tetrahydro-pyridin-3-yl)-3-propyn-2-yloxyimino-propyl]-pyrrolidin-2-one]	75.3	381	35	26.8	13.4	42.9	–	–
C#CCON=C(CN1CCCC1=O)c1cccnc1 [Example 24, 1-(2-propyn-2-yloxyimino-2-pyridin-3-yl-ethyl)-pyrrolidin-2-one]	58.0	327	306	–	–	–	0	0
CN1CCC=C(C(CN2CCCC2=O)=NO)C1 [Example 26, 1-[2-hydroxyimino-2-(1-methyl-1,2,5,6-tetrahydro-pyridin-3-yl)-ethyl]-pyrrolidin-2-one]	96.9	0.89	4078	94.1	3.63	87.6	–	–
CN1CCC=C(C#CCN2CCCC2=O)C1 [Example 30, 1-[3-(1-methyl-1,2,5,6-tetrahydro-pyridin-3-yl)-propyn-2-yl]-pyrrolidin-2-one]	96.6	14	774	42.3	10.8	58.5	–	–
